This note sets out measurements from patent publication US20220162163A1, “ALANINE-BASED MODULATORS OF PROTEOLYSIS AND ASSOCIATED METHODS OF USE” (Arvinas Operations, Inc., priority 2015, published 2022).

One test deals with T1, Androgen receptor (AR) (Homo sapiens, UniProt P10275).
T1 construct: endogenous in cells; host or cells: VCaP
T1 sequence (P10275 1-920): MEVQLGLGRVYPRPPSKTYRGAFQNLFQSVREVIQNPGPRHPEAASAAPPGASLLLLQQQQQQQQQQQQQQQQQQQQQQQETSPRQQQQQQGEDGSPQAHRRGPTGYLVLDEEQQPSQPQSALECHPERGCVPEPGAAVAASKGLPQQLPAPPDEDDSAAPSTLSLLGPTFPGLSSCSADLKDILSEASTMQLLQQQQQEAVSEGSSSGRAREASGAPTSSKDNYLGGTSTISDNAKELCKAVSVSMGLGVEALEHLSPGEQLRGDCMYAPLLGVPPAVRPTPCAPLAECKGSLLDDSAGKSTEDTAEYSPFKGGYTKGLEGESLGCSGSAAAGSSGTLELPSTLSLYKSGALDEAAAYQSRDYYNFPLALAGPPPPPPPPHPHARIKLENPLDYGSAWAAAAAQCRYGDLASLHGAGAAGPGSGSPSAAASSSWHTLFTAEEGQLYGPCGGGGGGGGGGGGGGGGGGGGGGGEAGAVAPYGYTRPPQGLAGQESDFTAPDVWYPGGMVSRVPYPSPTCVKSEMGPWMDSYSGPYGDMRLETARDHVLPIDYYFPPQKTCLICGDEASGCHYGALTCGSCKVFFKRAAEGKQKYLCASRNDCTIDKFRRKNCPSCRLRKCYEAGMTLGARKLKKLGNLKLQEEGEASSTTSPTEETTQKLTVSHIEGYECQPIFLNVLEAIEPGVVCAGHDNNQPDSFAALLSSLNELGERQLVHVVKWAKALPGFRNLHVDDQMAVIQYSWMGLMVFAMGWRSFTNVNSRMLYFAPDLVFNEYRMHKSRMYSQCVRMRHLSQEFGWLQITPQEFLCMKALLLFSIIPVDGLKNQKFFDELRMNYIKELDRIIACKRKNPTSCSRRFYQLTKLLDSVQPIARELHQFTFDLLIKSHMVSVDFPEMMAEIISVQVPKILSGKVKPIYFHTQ
The experiment in a line: Cellular assay of androgen receptor (AR) degradation (VCaP cells, ELISA). In kind it is cell-based. As to conditions: 4 h; androgen receptor, VCaP cells, PROTAC concentration 1 μM, relative to DMSO control; read-out: Target protein degradation range. The protocol:
Protocol of the Cellular Assay of Androgen Receptor (AR) Degradation (VCaP Cells, ELISA).
For detection Cell Signaling PathScan Sandwich Elisa Catalog #12850 Lot 11 was used. VCaP cells were cultured in ATCC DMEM+ATCC FBS and plated 40,000/well 100 μl/well in RPMI P/S with 5% CSS Omega (bovine) serum into a 96 well plate. The cells were grown for a minimum of 3 days, dosed with compounds in 0.1% DMSO (diluted with 5% CSS) and incubated with aspiration for 4 hours. 100 μl of 1× Cell Signaling lysis buffer #9803 (36 ml dH2O+4 ml Cell Signaling lysis buffer) was added. The incubation was placed on cold room shaker for 10 min at speed 8-9. 5 μl to 100 μl of Diluent was transferred to Elisa plate (0.15 ug/ml-0.075 ug/ml) and stored at 4 C overnight on cold room shaker speed 5 (gentle swirl) and then shaken next morning at 37° C. for 30 min. The preparation was washed 4×200 μl with Elisa wash buffer and aspirated with eight-channel aspirator. 100 μl/well of AR detection Ab was added after which the preparation was covered and shaken at 37° C. for 1 hr. 100 ul TMB was added, and the mixture was shaken for 5 min while under observation. When TMB turned light blue, 100 ul of Stop solution was added, and the mixture was shaken and read at 450 nm. Also read at 562 for background subtraction.
For `CN[C@@H](C)C(=O)N[C@H](C(=O)N1CC[C@@H]2CCN(CCc3ccc(OCCOCCOCCNc4ccc(C(=O)N[C@H]5C(C)(C)[C@H](Oc6ccc(C#N)c(Cl)c6)C5(C)C)cc4)cc3)C[C@@H]21)C1CCCCC1` (mixture of isomers) [Example 32, 4-[1-[4-(2-[1-[(2S)-2-cyclohexyl-2-[(2S)-2-(methylamino)propanamido]acetyl]-octahydro-1H-pyrrolo[2,3-c]pyridin-6-yl]ethyl)phenyl]-1,4,7-trioxa-10-azadecan-10-yl]-N-[(1r,3r)-3-(3-chloro-4-cyanophenoxy)-2,2,4,4-tetramethylcyclobutyl]benzamide], the Dmax at 1 µM was 0 to 30%. Turning to `CN[C@@H](C)C(=O)N[C@H](C(=O)N1CC[C@@H]2CCN(CCc3ccc(OCCOCCOCCOCCNc4ccc(C(=O)N[C@H]5C(C)(C)[C@H](Oc6ccc(C#N)c(Cl)c6)C5(C)C)cc4)cc3)C[C@@H]21)C1CCCCC1` (racemic) [Example 33, N-((1r,3r)-3-(3-chloro-4-cyanophenoxy)-2,2,4,4-tetramethylcyclobutyl)-4-(2-(2-(2-(2-(4-(2-(1-((S)-2-cyclohexyl-2-((S)-2-(methylamino)propanamido)acetyl)-octahydropyrrolo[2,3-c]pyridin-6-yl)ethyl)phenoxy)ethoxy)ethoxy)ethoxy)ethylamino)benzamide], the Dmax at 1 µM was in the range of 30 to 60%. As to `CN[C@@H](C)C(=O)N[C@H](C(=O)N1CCC[C@H]1C(=O)N[C@H]1c2ccccc2C[C@H]1OCCOCCOCCOCCOCCOc1ccc(C(=O)NC2C(C)(C)C(Oc3ccc(C#N)c(Cl)c3)C2(C)C)cc1)C(C)(C)C` (stereo partly drawn) [Example 1, 1-[3,3-dimethyl-(2S)-2-[(2S)-2-(methylamino)propanamido]butanoyl]-N-[(1S,2R)-2-[[1-(4-[[(1r,3r)-3-(3-chloro-4-cyanophenoxy)-2,2,4,4-tetramethylcyclobutyl]carbamoyl]phenyl)-1,4,7,10,13-pentaoxapentadecan-15-yl]oxy]-2,3-dihydro-1H-inden-1-yl]pyrrolidine-2-carboxamide], the Dmax at 1 µM was 30 to 60%.

In the case of `CN[C@@H](C)C(=O)N[C@H](C(=O)N1CCC[C@H]1c1nc(-c2ccc(OCCOCCNc3ccc(C(=O)NC4C(C)(C)C(Oc5ccc(C#N)c(Cl)c5)C4(C)C)cc3)c3ccccc23)cs1)C1CCCCC1` (stereo partly drawn) [Example 29, 4-[(2-[2-[(4-[2-[(2S)-1-[(2S)-2-cyclohexyl-2-[(2S)-2-(methylamino)propanamido]acetyl]pyrrolidin-2-yl]-1,3-thiazol-4-yl]naphthalen-1-yl)oxy]ethoxy]ethyl)amino]-N-[(1r,3r)-3-(3-chloro-4-cyanophenoxy)-2,2,4,4-tetramethylcyclobutyl]benzamide], the Dmax at 1 µM fell in the range of 0 to 30%. Turning to `CN[C@@H](C)C(=O)N[C@H](C(=O)N1CCC[C@H]1c1nc(-c2ccc(OCCOCCOCCNc3ccc(C(=O)N[C@H]4C(C)(C)[C@H](Oc5ccc(C#N)c(Cl)c5)C4(C)C)cc3)c3ccccc23)cs1)C1CCCCC1` [Example 30, 4-[1-(4-[2-[(2S)-1-[(2S)-2-Cyclohexyl-2-[(2S)-2-(methylamino)propanamido]acetyl]pyrrolidin-2-yl]-1,3-thiazol-4-yl]naphthalen-1-yl)-1,4,7-trioxa-10-azadecan-10-yl]-N-[(1r,3r)-3-(3-chloro-4-cyanophenoxy)-2,2,4,4-tetramethylcyclobutyl]benzamide], the Dmax at 1 µM lay in the range of 0 to 30%. On the same count and under the same terms, next, `CN[C@@H](C)C(=O)N[C@H](C(=O)N1CCC[C@H]1c1nc(-c2ccc(OCCOCCOCCOCCNc3ccc(C(=O)N[C@H]4C(C)(C)[C@H](Oc5ccc(C#N)c(Cl)c5)C4(C)C)cc3)c3ccccc23)cs1)C1CCCCC1` [Example 31, 4-[1-(4-[2-[(2S)-1-[(2S)-2-cyclohexyl-2-[(2S)-2-(methylamino)propanamido]acetyl]pyrrolidin-2-yl]-1,3-thiazol-4-yl]naphthalen-1-yl)-1,4,7,10-tetraoxa-13-azatridecan-13-yl]-N-[(1r,3r)-3-(3-chloro-4-cyanophenoxy)-2,2,4,4-tetramethylcyclobutyl]benzamide]: 0 to 30%.

Still in this test, the particulars now being: @ 1 μM.
In the case of `CN[C@@H](C)C(=O)N[C@H](C(=O)N1CCC[C@H]1C(=O)N[C@H]1c2ccccc2C[C@H]1OCCOCCOCCOc1ccc(C(=O)N[C@H]2C(C)(C)[C@H](Oc3ccc(C#N)c(Cl)c3)C2(C)C)cc1)C(C)(C)C` [(2S)-1-[(2S)-3,3-dimethyl-2-[(2S)-2-(methylamino)propanamido]butanoyl]-N-[(1S,2R)-2-(2-{2-[2-(4-{[(1r,3r)-3-(3-chloro-4-cyanophenoxy)-2,2,4,4-tetramethylcyclobutyl]carbamoyl}phenoxy)ethoxy]ethoxy}ethoxy)-2,3-dihydro-1H-inden-1-yl]pyrrolidine-2-carboxamide], the “Androgen receptor (AR) degradation in VCaP cells” value (from here on “Androgen receptor”) amounted to 18%. Turning to `CN[C@@H](C)C(=O)N[C@H](C(=O)N1CCC[C@H]1C(=O)N[C@H]1c2ccccc2C[C@H]1OCCOCCOCCOCCOCCOc1ccc(C(=O)N[C@H]2C(C)(C)[C@H](Oc3ccc(C#N)c(Cl)c3)C2(C)C)cc1)C(C)(C)C` [(2S)-1-[(2S)-3,3-dimethyl-2-[(2S)-2-(methylamino)propanamido]butanoyl]-N-[(1S,2R)-2-{[1-(4-1{[(1r,3r)-3-(3-chloro-4-cyanophenoxy)-2,2,4,4-tetramethylcyclobutyl]carbamoyl}phenyl)-1,4,7,10,13-pentaoxapentadecan-15-yl]oxy}-2,3-dihydro-1H-inden-1-yl]pyrrolidine-2-carboxamide], the “Androgen receptor” value amounted to 38%.

Take `CN[C@@H](C)C(=O)N[C@H](C(=O)N1CCC[C@H]1C(=O)N[C@H]1c2ccccc2C[C@H]1OCCOCCOCCOCCOc1ccc(C(=O)N[C@H]2C(C)(C)[C@H](Oc3ccc(C#N)c(Cl)c3)C2(C)C)cc1)C(C)(C)C` [(2S)-1-[(2S)-3,3-dimethyl-2-[(2S)-2-(methylamino)propanamido]butanoyl]-N-[(1S,2R)-2-{[1-(4-1{[(1r,3r)-3-(3-chloro-4-cyanophenoxy)-2,2,4,4-tetramethylcyclobutyl]carbamoyl}phenyl)-1,4,7,10-tetraoxadodecan-12-yl]oxy}-2,3-dihydro-1H-inden-1-yl]pyrrolidine-2-carboxamide]: the “Androgen receptor” value is 33%.

The test is the same for the next values; noted with them: androgen receptor, VCaP cells, PROTAC concentration 1 μM, relative to DMSO control.
Regarding “1-[(2S)-3,3-dimethyl-2-[(2S)-2-(methylamino)propanamido]butanoyl]-N-[(1S,2R)-2-[[1-(4-[[(1r,3r)-3-(3-chloro-4-cyanophenoxy)-2,2,4,4-tetramethylcyclobutyl]carbamoyl]phenyl)-1,4,7,10-tetraoxadodecan-12-yl]oxy]-2,3-dihydro-1H-inden-1-yl]pyrrolidine-2-carboxamide [Example 3]”, the “Target protein degradation range” value was “B (degradation between 30% and 60%)”. Take `CN[C@@H](C)C(=O)N[C@H](C(=O)N1CCCC1C(=O)N[C@H]1c2ccccc2C[C@H]1OCCOCCOCCOc1ccc(C(=O)NC2C(C)(C)C(Oc3ccc(C#N)c(Cl)c3)C2(C)C)cc1)C(C)(C)C` (stereo partly drawn) [Example 2, 1-[(2S)-3,3-dimethyl-2-[(2S)-2-(methylamino)propanamido]butanoyl]-N-[(1S,2R)-2-(2-[2-[2-(4-[[(1r,3r)-3-(3-chloro-4-cyanophenoxy)-2,2,4,4-tetramethylcyclobutyl]carbamoyl]phenoxy)ethoxy]ethoxy]ethoxy)-2,3-dihydro-1H-inden-1-yl]pyrrolidine-2-carboxamide]: the “Target protein degradation range” value is “C (degradation between 0% and 30%)”.
